{
  "source": "patent US20080032918A1",
  "about": "“Mast cell-derived renin” (Cornell Research Foundation, Inc., priority 2003, published 2008)",
  "key": {"renin": {"target": "T1, renin (Homo sapiens, UniProt P00797)", "T1 sequence (P00797 67-406)": "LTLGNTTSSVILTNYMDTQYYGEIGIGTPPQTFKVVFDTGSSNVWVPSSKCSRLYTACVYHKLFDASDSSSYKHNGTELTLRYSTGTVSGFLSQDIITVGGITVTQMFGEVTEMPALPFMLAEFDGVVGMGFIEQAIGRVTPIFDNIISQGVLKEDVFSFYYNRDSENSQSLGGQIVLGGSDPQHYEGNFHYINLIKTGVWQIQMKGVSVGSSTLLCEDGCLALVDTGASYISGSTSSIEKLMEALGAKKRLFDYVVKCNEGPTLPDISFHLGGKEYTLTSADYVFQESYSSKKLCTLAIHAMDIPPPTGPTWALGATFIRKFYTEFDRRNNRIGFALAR", "conditions": "specific renin inhibitor; cited from earlier work"}, "cardiac mast cells": {"tested_on": "cardiac mast cells", "assay": "renin in coronary effluent of normoxic Langendorff-perfused hearts challenged with 48/80", "parameters": "species or system guinea pig", "conditions": "lodoxamide 10 μM or BILA 2157 100 nM prior to 48/80", "method": "Renin was measured in the coronary effluent of normoxic Langendorff-perfused guinea-pig hearts, ex vivo. […] When hearts were perfused with the mast-cell stabilizer lodoxamide (FIG. 9B) or the renin inhibitor BILA2157 prior to 48/80 challenge (FIGS. 9A and B), renin overflow was abolished."}, "[1]": {"tested_on": "isolated normoxic guinea pig hearts", "assay": "chronotropic response and norepinephrine overflow in normoxic isolated hearts challenged with 48/80", "conditions": "BILA 2157 100 nM, lodoxamide 30 μM", "source_text": "These findings indicate that cardiac mast cells are capable of releasing active renin, which then leads to local formation of ANG II causing norepinephrine exocytosis."}, "mast-cell-derived renin": {"target": "T2, mast-cell-derived renin (Homo sapiens, UniProt P00797)", "T2 construct": "endogenous in cells; host or cells: HMC-1 human mastocytoma cell line, degranulated with compound 48/80", "T2 sequence (P00797 67-406)": "T1 sequence (P00797 67-406)", "assay": "renin activity (ANG I formed, RIA) of HMC-1 cell releasate incubated with human angiotensinogen", "assay_type": "biochemical", "conditions": "BILA2157 100 nM", "method": "Renin activity: Pooled confluent flasks of HMC-1 cells, or individual wells of HMC-1 cells, were pelleted and resuspended in HEPES buffer (pH 5.7, 1 mM EDTA) containing the mast-cell degranulating agent compound 48/80 (100 μg/ml or 20 μg/ml; Sigma). After 30 min, cells were spun down and the renin-containing supernatant was incubated with increasing concentrations of human angiotensinogen (Sigma). Renin activity (ANG I formed) was then determined using a GammaCoat Plasma Renin Activity 1251 Radioimmunoassay kit (DiaSorin, Mass.). The selective renin inhibitor BILA2157 was from Boehringer Ingelheim.\nThe cell releasate was incubated with increasing concentrations of angiotensinogen and then assayed for ANG I formed (i.e. renin activity) by RIA. A concentration-response curve for ANG I formation as a function of angiotensinogen concentration was generated on the HMC-1 releasate. The amount of ANG I formed increased with angiotensinogen concentration. […]\nFIG. 4F illustrates that mast-cell-derived renin can be synthesized in mast cells. Releasates were analyzed from the same population of HMC-1 exposed to compound 48/80 (20 μg/ml) 48 hours apart, and analyzed for BILA2157-sensitive renin activity."}, "[2]": {"tested_on": "cardiac sympathetic nerve endings", "assay": "norepinephrine release from isolated cardiac sympathetic nerve endings incubated with angiotensinogen", "assay_type": "cell-based, guinea pig", "conditions": "nerve endings incubated with BILA2157 10 nM, enalaprilat 30 nM or EXP 3174 10 nM", "source_text": "Preparation ofguinea-pig sympathetic nerve endings: Cardiac sympathetic nerve endings were isolated from guinea-pig hearts as previously described (Seyedi et al., J Pharmacol Exp Ther 290: 656-663, 1999; Seyedi et al., Circ. Res. 81: 774-784, 1997). Spontaneously beating hearts were isolated as previously described by the inventors (Hatta et al., J. Pharmacol. Exp. Ther. 288: 919-927, 1999; Park et al., Circ. Res. 71: 992-1001, 1992). Briefly, male Hartley guinea pigs were anesthetized with CO2 vapor and then exsanguinated. Hearts were perfused through the aorta for 15 min at constant pressure with Ringer's solution at 37° C. (Park et al., Circ. Res. 71: 992-1001, 1992) to exclude blood from the coronary circulation. Hearts were minced in 0.32 M sucrose containing 1 mM EGTA. The minced tissue was then digested with 75 mg collagenase per 10 ml HBS per gm for 1 hr at 37° C. After low speed centrifugation the resulting pellet were suspended in 10 volumes of 0.32 M sucrose and homogenized with a Teflon/glass homogenizer. The homogenate was centrifuged at 650g for 10 min, the pellet was re-homogenized and the homogenate was centrifuged again. The pellet containing cellular debris was discarded, the supernatants from the last two spins were combined, the pooled supernatant was equally subdivided into 4 to 8 tubes and re-centrifuged for 20 min at 20,000g at 4° C. This pellet contains cardiac sympathetic nerve endings. The pellet was resuspended either in HEPES-buffered saline (HBS; 500 μl, normoxic conditions) or in glucose-free HBS, which contained the reducing agent sodium dithionite (500 μl, ischemic conditions), and incubated in the absence or presence of angiotensinogen (1 hr) or other agents for 20 min at 37° C. prior to ischemia (see below). Each suspension was used only once as an independent sample.\nNorepinephrine assay: Coronary effluent and synaptosome supernatant will be assayed for NE by HPLC with electrochemical detection (ESA). […]"}, "guinea-pig hearts": {"tested_on": "guinea-pig hearts", "assay": "ischemia-reperfusion in guinea pig hearts ex vivo (Langendorff)", "conditions": "20-min global ischemia, 45-min reperfusion, lodoxamide 10 μM; for ventricular fibrillation during reperfusion: BILA2157 100 nM; for renin overflow into coronary effluent on reperfusion: BILA 2157 100 nM", "method": "Ischemia-reperfusion in guinea pig hearts ex vivo: Guinea-pig hearts will be perfused for 30 min prior to ischemia. Inamura et al., Circ. Res. 78: 475-481 (1996). Normothermic 20-min global ischemia will be induced by complete cessation of coronary perfusion, followed by 45-min reperfusion. Coronary effluent will be assayed for renin activity and NE.\nGuinea-pig hearts were perfused ex vivo at constant pressure in a Langendorff apparatus and subjected to 20-min. stop-flow global ischemia, followed by 45-min. reperfusion (Hatta, E., R. Maruyama, S. J. Marshall, M. Imamura, and R. Levi. Bradykinin promotes ischemic norepinephrine release in guinea pig and human hearts. J. Pharmacol. Exp. Ther. 288: 919-927 (1999)). Surface ECG and coronary flow were continuously monitored; the coronary effluent was assayed for renin activity (i.e., ANG I generated as described herein). There was no detectable renin in the coronary effluent prior to ischemia. With reperfusion, there was significant renin overflow into the coronary effluent accompanied by ventricular fibrillation (VF) (FIG. 12).\nTraces in the left panels were recorded at the end of the equilibration period prior to ischemia, showing normal sinus rhythm."}},
  "note": "Entries after “also recorded” stand apart in the source; their conditions may differ.",
  "data": [
    {"smiles": "CC(C)C[C@H](O)[C@H](O)[C@H](CC1CCCCC1)NC(=O)[C@@H](CC(=O)N(CC(=O)N(C)CCc1ccccn1)CC1CCCCC1)Cc1csc(N)n1", "note": "[BILA2157]", "values": [
      {"measurement": "IC50", "setting": "renin", "result": 1, "unit": "nM"},
      {"measurement": "renin overflow into coronary effluent after 48/80 challenge", "setting": "cardiac mast cells", "result": "abolished"},
      {"measurement": "renin overflow into coronary effluent after 48/80 challenge", "setting": "cardiac mast cells; listed as BILA 2157", "result": "markedly diminished"},
      {"measurement": "chronotropic response to 48/80", "setting": "[1]", "result": "markedly abbreviated"},
      {"measurement": "chronotropic response to 48/80", "setting": "[1]; listed as BILA 2157", "result": "diminishes the chronotropic response"},
      {"measurement": "share of ANG I activity due to BILA2157-sensitive renin", "setting": "mast-cell-derived renin; 240 nM angiotensinogen, initially and 48 hours after degranulation with 48/80", "result": "about 70%"},
      {"measurement": "share of total ANG I formed that originates from renin (BILA2157-sensitive)", "setting": "mast-cell-derived renin; increasing angiotensinogen concentrations", "result": "~70", "unit": "%"},
      {"measurement": "effect on 48/80 potentiation of norepinephrine release", "setting": "[2]", "result": "abolished"},
      {"measurement": "ventricular fibrillation during reperfusion", "setting": "guinea-pig hearts", "result": "no ventricular fibrillation; also recorded: ventricular fibrillation did not occur"},
      {"measurement": "ventricular fibrillation during reperfusion", "setting": "guinea-pig hearts; listed as BILA 2157", "result": "prevent ventricular fibrillation; also recorded: essentially no ventricular fibrillation"},
      {"measurement": "renin overflow into coronary effluent on reperfusion", "setting": "guinea-pig hearts", "result": "abrogated"},
      {"measurement": "renin overflow into coronary effluent on reperfusion", "setting": "guinea-pig hearts; listed as BILA 2157", "result": "prevented renin release"}
    ]}
  ]
}
